Measured values: ChEMBL document CHEMBL2401653, “Synthesis, structure-property relationships and pharmacokinetic evaluation of ethyl 6-aminonicotinate sulfonylureas as antagonists of the P2Y₁₂ receptor” (Eur J Med Chem, 2013)

How the values were obtained:
[1] = Stability of the compound in MeCN assessed as compound remaining at room temperature; type: physicochemical
[2] = 1-octanol-phosphate buffer distribution coefficient, log D of the compound at pH 7.4 after 2 days by shake flask method; type: physicochemical
P2Y purinoceptor 12 [3] = target: T1, P2Y purinoceptor 12 (Homo sapiens, UniProt Q9H244)
P2Y purinoceptor 12 [4] = target: T1, P2Y purinoceptor 12; remark: listed apart in the source
Description: Displacement of [125I]-AZ11931285 from P2Y12 receptor (unknown origin) after 1 hr by scintillation counting analysis

Liver microsomes [5] = assay: Intrinsic clearance in human liver microsomes at 1 umol/L by LC/MS analysis in presence of NADPH; type: ADME, Microsome; settings: 1 µM
Liver microsomes [6] = assay: Intrinsic clearance in rat liver microsomes at 1 umol/L by LC/MS analysis in presence of NADPH; type: ADME, Microsome; settings: 1 µM
[7] = Apparent Permeability across apical to basolateral side in human Caco2 cells at 1 to 10 uM measured at 30 to 90 mins by LC/MS analysis; type: ADME, cell-based; settings: Caco-2
Liver microsomes [8] = assay: Metabolic stability in rat liver microsomes at 1 umol/L by LC/MS analysis in absence of NADPH; type: ADME, Microsome; settings: 1 µM
Liver microsomes [9] = assay: Metabolic stability in human liver microsomes at 1 umol/L by LC/MS analysis in absence of NADPH; type: ADME, Microsome; settings: 1 µM

T1 sequence (Q9H244 whole entry): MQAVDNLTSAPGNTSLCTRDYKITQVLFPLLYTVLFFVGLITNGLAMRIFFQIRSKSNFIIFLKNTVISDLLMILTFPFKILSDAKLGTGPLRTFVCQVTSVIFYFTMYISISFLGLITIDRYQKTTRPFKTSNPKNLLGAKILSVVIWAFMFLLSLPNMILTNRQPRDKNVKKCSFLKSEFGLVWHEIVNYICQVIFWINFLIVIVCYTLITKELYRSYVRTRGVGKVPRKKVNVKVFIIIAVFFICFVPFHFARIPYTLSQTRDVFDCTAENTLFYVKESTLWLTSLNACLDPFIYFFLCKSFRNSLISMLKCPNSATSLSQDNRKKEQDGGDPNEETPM

Row | Structure (SMILES) | Stability [1] | logD at 48 h [2] | IC50 (P2Y purinoceptor 12 [3]) [nM] | IC50 (P2Y purinoceptor 12 [4]) [nM] | Intrinsic clearance (CLint) (Liver microsomes [5]) [µL/min/mg] | Intrinsic clearance (Liver microsomes [6]) [µL/min/mg] | Papp A→B at up to 10 µM [7] [×10⁻⁶ cm/s] | Stability (Liver microsomes [8]) | Stability (Liver microsomes [9])
1 | CCOC(=O)c1cnc(N2CCN(C(=O)Nc3ccccc3)CC2)c(C#N)c1 | Stable | 3.7 | – | – | – | – | – | – | –
2 | CCOC(=O)c1cnc(N2CCN(C(=O)Nc3ccccc3)CC2)c(Cl)c1 | Stable | – | – | – | – | – | – | – | –
3 | CCOC(=O)c1cnc(N2CCN(C(=O)Nc3ccccc3C)CC2)c(Cl)c1 | Stable | – | – | – | – | – | – | – | –
4 | CCOC(=O)c1cnc(N2CCN(C(=O)Nc3ccc(C)cc3)CC2)c(Cl)c1 | Stable | – | – | – | – | – | – | – | –
5 | CCOC(=O)c1cc(C#N)c(N2CCN(C(=O)NCc3ccc(F)cc3)CC2)nc1C(F)(F)F | Stable | 5 | – | – | – | – | – | – | –
6 | CCOC(=O)c1cc(C#N)c(N2CCCN(C(=O)NS(=O)(=O)c3ccc(Cl)s3)CC2)nc1C | Stable | 0.9 | 240 | 630 | – | – | – | – | –
7 | CCOC(=O)c1cc(C#N)c(N2C[C@@H]3C[C@H]2CN3C(=O)NS(=O)(=O)c2ccc(Cl)s2)nc1C | Stable | – | 690 | 2900 | – | – | – | – | –
8 | CCOC(=O)c1cc(C#N)c(N2CC3CN(C(=O)NS(=O)(=O)c4ccccc4)CC3C2)nc1C (stereo not drawn) | Stable | 0.4 | 580 | 240 | < 13 | < 19 | 0.39 | – | –
9 | COC(=O)c1cnc(N2CCN(C(=O)NS(=O)(=O)c3ccc(Cl)s3)CC2)c(Cl)c1 | Stable | 0.9 | 3200 | 650 | – | – | – | – | –
10 | CCCOC(=O)c1cnc(N2CCN(C(=O)NS(=O)(=O)c3ccc(Cl)s3)CC2)c(Cl)c1 | Stable | 1.6 | 240 | 210 | – | – | – | – | –
11 | CCCCOC(=O)c1cnc(N2CCN(C(=O)NS(=O)(=O)c3ccc(Cl)s3)CC2)c(Cl)c1 | Stable | 2.3 | 150 | 95 | > 70 | – | 0.5 | – | –
12 | CC(C)OC(=O)c1cnc(N2CCN(C(=O)NS(=O)(=O)c3ccc(Cl)s3)CC2)c(Cl)c1 | Stable | 1.5 | 530 | 250 | > 70 | > 104 | – | – | –
13 | CC(C)CCOC(=O)c1cnc(N2CCN(C(=O)NS(=O)(=O)c3ccc(Cl)s3)CC2)c(Cl)c1 | Stable | 2.7 | 110 | 140 | > 70 | – | 0.44 | – | –
14 | CCCC(=O)c1cnc(N2CCN(C(=O)NS(=O)(=O)c3ccc(Cl)s3)CC2)c(Cl)c1 | Stable | 1.3 | 890 | 560 | – | > 104 | 0.16 | – | –
15 | O=C(c1cnc(N2CCN(C(=O)NS(=O)(=O)c3ccc(Cl)s3)CC2)c(Cl)c1)C1CC1 | Stable | 1.2 | 1300 | 420 | < 13 | < 19 | 0.12 | – | –
16 | CCCS(=O)(=O)c1cnc(N2CCN(C(=O)NS(=O)(=O)c3ccc(Cl)s3)CC2)c(Cl)c1 | Stable | – | 14000 | 9300 | – | – | – | – | –
17 | CCOC(=O)c1ccc(N2CCN(C(=O)NS(=O)(=O)c3ccc(Cl)s3)CC2)c(Cl)c1 | Stable | 1.5 | 1800 | 660 | – | > 104 | – | – | –
18 | C=C(NC(=O)N1CCN(c2ncc(C(=O)OCC)cc2Cl)CC1)c1ccccc1 | Stable | – | 1700 | 2400 | – | – | – | – | –

Row | Structure (SMILES) | Stability [1] | logD at 48 h [2] | IC50 (P2Y purinoceptor 12 [3]) [nM] | IC50 (P2Y purinoceptor 12 [4]) [nM] | Intrinsic clearance (CLint) (Liver microsomes [5]) [µL/min/mg] | Intrinsic clearance (Liver microsomes [6]) [µL/min/mg] | Papp A→B at up to 10 µM [7] [×10⁻⁶ cm/s] | Stability (Liver microsomes [8]) | Stability (Liver microsomes [9])
19 | CCOC(=O)c1cc(C#N)c(N2CCN(C(=O)NS(=O)(=O)c3ccccc3C)CC2)nc1C(F)(F)F | Stable | – | 380 | 430 | – | – | – | – | –
20 | CCOC(=O)c1cc(C#N)c(N2CCN(C(=O)NS(=O)(=O)c3ccccc3Cl)CC2)nc1C(F)(F)F | Stable | – | 470 | 690 | – | – | – | – | –
21 | CCOC(=O)c1cc(C#N)c(N2CCN(C(=O)NS(=O)(=O)c3ccc(Cl)cc3)CC2)nc1C(F)(F)F | Stable | – | 97 | 68 | > 70 | > 104 | 0.13 | – | –
22 | CCOC(=O)c1cc(C#N)c(N2CCN(C(=O)NS(=O)(=O)c3ccc(F)cc3)CC2)nc1C(F)(F)F | Stable | 0.4 | 210 | 230 | – | > 104 | 0.053 | – | –
23 | CCOC(=O)c1cnc(N2CCN(C(=O)NS(=O)(=O)c3ccccc3Cl)CC2)c(Cl)c1 | Stable | 0.6 | 990 | 870 | – | – | – | – | –
24 | CCOC(=O)c1cnc(N2CCN(C(=O)NS(=O)(=O)c3ccc(F)cc3)CC2)c(Cl)c1 | Stable | 0.6 | 470 | 370 | > 70 | > 104 | 0.54 | – | –
25 | CCOC(=O)c1cc(C#N)c(N2CC(NC(=O)NS(=O)(=O)c3ccc(Cl)cc3)C2)nc1C | Stable | 1.1 | 78 | 86 | < 13 | – | 1.2 | – | –
26 | CCOC(=O)c1cc(C#N)c(N2CCC(NC(=O)NS(=O)(=O)c3ccc(Cl)s3)CC2)nc1C | Stable | 1.6 | 57 | 27 | > 70 | > 104 | 6.9 | – | –
27 | CCOC(=O)c1cc(C#N)c(N2CCC(NC(=O)NS(=O)(=O)c3ccc(Cl)cc3)CC2)nc1C | Stable | 2.1 | 260 | 190 | > 70 | > 104 | 19 | – | –
28 | CCOC(=O)c1cc(C#N)c(N2CCC(NC(=O)NS(=O)(=O)Cc3ccccc3)CC2)nc1C | Stable | 1.9 | 150 | 88 | – | > 104 | 30 | – | –
29 | CCOC(=O)c1cc(C#N)c(N2CCN(C(=O)NS(=O)(=O)c3ccccc3)CC2)nc1C | Stable | – | 130 | 140 | – | – | 0.3 | Stable | Stable
30 | CCOC(=O)c1cc(C#N)c(N2CCN(C(=O)NS(=O)(=O)Cc3ccccc3)CC2)nc1C | Stable | 0.9 | 54 | 33 | < 13 | > 104 | 0.37 | – | –
31 | CCOC(=O)c1cnc(N2CCN(C(=S)Nc3ccccc3)CC2)c(Cl)c1 | Stable | – | 3700 | 12000 | – | – | – | – | –
32 | CCOC(=O)c1cnc(N2CCN(C(=O)NC(=O)c3ccccc3)CC2)c(Cl)c1 | Stable | – | 5300 | 9900 | – | – | – | – | –
33 | CCOC(=O)c1cnc(N2CCN(C(=S)NC(=O)c3ccccc3)CC2)c(Cl)c1 | Stable | – | 990 | 2400 | – | – | – | – | –
34 | O=C(O)c1cnc(N2CCN(C(=O)NS(=O)(=O)c3ccccc3)CC2)c(Cl)c1 | Stable | < 0.5 | – | > 33000 | – | – | – | – | –
35 | CCOC(=O)c1cc(C#N)c(N2CCN(C(=O)NS(=O)(=O)c3ccc(Cl)s3)CC2C)nc1C (racemic) | Stable | 1.6 | 37 | 64 | > 70 | > 104 | 0.31 | – | –
